This note sets out measurements from patent US20220380341A1, “INHIBITORS OF HIV-1 NEF FOR THE TREATMENT OF HIV DISEASE” (priority 2018, published 2022).

Like-named read-outs stand apart in the source and are kept apart here.

The target of the experiment is HIV-1 NefNL4-3 (Human immunodeficiency virus type 1 group M subtype B, UniProt P03406, A33V/T15A/T51N/V11I). Description: Surface plasmon resonance binding to recombinant full-length Nef (NL4-3). To be noted: for Nef NL4-3 Binding, SPR 1:1 or 2-site fitting KD1: 1:1 Langmuir fit where the KD2 cell says '1 to 1 fitting', else 2-site fit. Background: Surface plasmon resonance follows binding to a sensor surface in real time, without labels.

Where [1] appears, read: Nef NL4-3 Binding, SPR 1:1 or 2-site fitting KD2, Table 1, 2-site fit, second component.
Setting [2] is: read-out: Nef NL4-3 Binding, SPR 1:1 or 2-site fitting KD2, Table 1, 2-site fit, second component.

As for `Oc1c(CCc2ccc(F)cc2)c(-c2cnccn2)nn1-c1nc2ccccc2[nH]1` [Compound I-103, 1-(1H-1,3-benzodiazol-2-yl)-4-[2-(4-fluorophenyl)ethyl]-3-(pyrazin-2-yl)-1H-pyrazol-5-ol], under setting [1], the Kd is 25400 nM. As to `Cc1ccc(-c2nn(-c3nc4ccccc4[nH]3)c(O)c2CCc2ccc(F)cc2)cc1` [Compound I-104, 1-(1H-1,3-benzodiazol-2-yl)-4-[2-(4-fluorophenyl)ethyl]-3-(4-methylphenyl)-1H-pyrazol-5-ol], the Kd stood at 2370 nM. Moreover, the Kd under setting [1] amounted to 2260 nM. With `Oc1c(CCc2ccc(F)cc2)c(-c2ccccn2)nn1-c1nc2ccccc2[nH]1` [Compound I-109, 1-(1H-1,3-benzodiazol-2-yl)-4-[2-(4-fluorophenyl)ethyl]-3-(pyridin-2-yl)-1H-pyrazol-5-ol], the Kd came to 36.2 nM.

Consider `Oc1c(CCc2ccc(F)c(F)c2)c(-c2cnccn2)nn1-c1nc2ccccc2[nH]1` [Compound I-111, 1-(1H-1,3-benzodiazol-2-yl)-4-[2-(3,4-difluorophenyl)ethyl]-3-(pyrazin-2-yl)-1H-pyrazol-5-ol], for which the “Nef NL4-3 Binding, SPR 1:1 or 2-site fitting KD1” value (“Nef NL4-3 Binding” for short) (Table 1) was “No Interaction”. For `Oc1c(CCc2ccc(F)c(Cl)c2)c(-c2cnccn2)nn1-c1nc2ccccc2[nH]1` [Compound I-112, 1-(1H-1,3-benzodiazol-2-yl)-4-[2-(3-chloro-4-fluorophenyl)ethyl]-3-(pyrazin-2-yl)-1H-pyrazol-5-ol], the “Nef NL4-3 Binding” value (Table 1) is on record as “No Interaction”. As for `Oc1c(CCc2ccc(F)cc2)c(-c2ccncc2)nn1-c1nc2ccccc2[nH]1` [Compound I-113, 1-(1H-1,3-benzodiazol-2-yl)-4-[2-(4-fluorophenyl)ethyl]-3-(pyridin-4-yl)-1H-pyrazol-5-ol], the Kd turned out to be 3350 nM. For the compound `C=CCc1c(-c2ccc(C(F)(F)F)cc2)nn(-c2nc3ccccc3[nH]2)c1O` [Compound I-115, 1-(1H-1,3-benzodiazol-2-yl)-4-(prop-2-en-1-yl)-3-[4-(trifluoromethyl)phenyl]-1H-pyrazol-5-ol], the Kd worked out at 687 nM. Also, under setting [2], the Kd was determined as 5700 nM. `Oc1c(CCc2ccc(F)cc2)c(-c2cccc(Cl)c2)nn1-c1nc2ccccc2[nH]1` [Compound I-116, 1-(1H-1,3-benzodiazol-2-yl)-3-(3-chlorophenyl)-4-[2-(4-fluorophenyl)ethyl]-1H-pyrazol-5-ol]: the Kd is 2010 nM. For `Oc1c(CCc2ccc(F)cc2)c(-c2ccccc2Cl)nn1-c1nc2ccccc2[nH]1` [Compound I-117, 1-(1H-1,3-benzodiazol-2-yl)-3-(2-chlorophenyl)-4-[2-(4-fluorophenyl)ethyl]-1H-pyrazol-5-ol], the Kd was found to be 1710 nM. Further, under setting [2], the Kd stood at 24700 nM.

With `O=C(OCc1ccccc1)N1CCC(c2nn(-c3nc4ccccc4[nH]3)c(O)c2Cc2ccc(F)c(F)c2)CC1` [Compound I-159, benzyl 4-[1-(1H-1,3-benzodiazol-2-yl)-4-[(3,4-difluorophenyl)methyl]-5-hydroxy-1H-pyrazol-3-yl]piperidine-1-carboxylate], the Kd worked out at 384 nM. Turning to `CC(C)(C)OC(=O)N1CCC(c2nn(-c3nc4ccccc4[nH]3)c(O)c2Cc2ccc(F)c(F)c2)CC1` [Compound I-203, tert-butyl 4-[1-(1H-1,3-benzodiazol-2-yl)-4-[(3,4-difluorophenyl)methyl]-5-hydroxy-1H-pyrazol-3-yl]piperidine-1-carboxylate], the Kd came to 821 nM. For the same compound, the Kd under setting [2] was 45400 nM. Consider `Oc1c(CCc2ccc(F)cc2)c(C2CCCNC2)nn1-c1nc2ccccc2[nH]1` (stereo not drawn) [Compound I-502, 1-(1H-1,3-benzodiazol-2-yl)-4-[2-(4-fluorophenyl)ethyl]-3-(piperidin-3-yl)-1H-pyrazol-5-ol], for which the Kd worked out at 4510 nM (Table 1, 2-step induced-fit model, read-out: Nef NL4-3 Binding, SPR 2-state fitting KD) and 2450 nM (read-out: Nef NL4-3 Binding, SPR 1:1 or 2-site fitting KD1). For the compound `Oc1c(CCc2ccc(F)cc2)c(C2CCNCC2)nn1-c1nc2ccccc2[nH]1` [Compound I-551, 1-(1H-1,3-benzodiazol-2-yl)-4-[2-(4-fluorophenyl)ethyl]-3-(piperidin-4-yl)-1H-pyrazol-5-ol], the “Nef NL4-3 Binding” value (Table 1) is “No Interaction”.
